Consider 45 molecules from patent US7423030B2, “1-amino-phthalazine derivatives, the preparation and the therapeutic use thereof” (Sanofi-Aventis, priority 2004, dated 2008).

The term melting point denotes the temperature of the solid-liquid transition.

Molecules are shown by their SMILES. Counter-ions that a name gives are not always drawn.

In turn, `COc1ccc2c(-c3ccc(F)cc3)nnc(NC3CCN(Cc4ccc5ccccc5c4)CC3)c2c1` (as salt: salt) (hydrate or solvate) [Compound 82, 4-(4-Fluorophenyl)-7-methoxy-N-[1-(naphthalen-2-ylmethyl)piperidin-4-yl]phthalazin-1-amine] registered a melting point of 175 °C. The result for `COc1ccc(-c2nnc(NC3CCN(Cc4ccc5[nH]ccc5c4)CC3)c3cc(OC)ccc23)cc1` (as salt: salt) (hydrate or solvate) [Compound 87, N-[1-(1H-indol-5-ylmethyl)piperidin-4-yl]-7-methoxy-4-(4-methoxyphenyl)phthalazin-1-amine] reads 281 °C. `COCc1ccc(-c2nnc(NC3CCN(Cc4ccc5ccccc5c4)CC3)c3cc(OC)ccc23)cc1` (as salt: salt) (hydrate or solvate) [Compound 88, 7-Methoxy-4-(4-methoxymethylphenyl)-N-[1-(naphthalen-2-ylmethyl)piperidin-4-yl]phthalazin-1-amine] had a melting point of 155 °C. For the molecule `COc1ccc(-c2nnc(NC3CCN(Cc4ccc(OC)c(C)c4)CC3)c3cc(OC)ccc23)cc1` (as salt: salt) (hydrate or solvate) [Compound 89, 7-methoxy-N-[1-(4-methoxy-3-methylbenzyl)piperidin-4-yl]-4-(4-methoxyphenyl)phthalazin-1-amine], the melting point is 270 °C.

The molecule `COc1ccc(-c2nnc(NC3CCN(Cc4ccc5ncccc5c4)CC3)c3cc(OC)ccc23)cc1` (as salt: salt) (hydrate or solvate) [Compound 99, 7-methoxy-4-(4-methoxyphenyl)-N-[1-(quinolin-6-ylmethyl)piperidin-4-yl]phthalazin-1-amine] had a melting point of 249 °C. `COc1ccc(-c2nnc(NC3CCN(Cc4ccc5c(ccn5C)c4)CC3)c3cc(OC)ccc23)cc1` (as salt: salt) (hydrate or solvate) [Compound 100, 7-methoxy-4-(4-methoxyphenyl)-N-{1-[(1-methyl-1H-indol-5-yl)methyl]piperidin-4-yl}phthalazin-1-amine] showed a melting point of 161 °C. `COc1ccc(-c2nnc(NC3CCN(Cc4ccc5cc[nH]c5c4)CC3)c3cc(OC)ccc23)cc1` (as salt: salt) (hydrate or solvate) [Compound 129, N-[1-(1H-indol-6-ylmethyl)piperidin-4-yl]-7-methoxy-4-(4-methoxyphenyl)phthalazin-1-amine] showed a melting point of 278 °C. With `COc1ccc(OC)c(-c2nnc(NC3CCN(Cc4ccc5ncsc5c4)CC3)c3cc(OC)ccc23)c1` (as salt: salt) (hydrate or solvate) [Compound 135, N-[1-(1,3-benzothiazol-6-ylmethyl)piperidin-4-yl]-4-(2,5-dimethoxyphenyl)-7-methoxyphthalazin-1-amine] the figure was 193 °C; with `COc1ccc(-c2nnc(NC3CCN(Cc4ccc5ccccc5c4)CC3)c3ccc(C)cc23)cc1` (as salt: salt) (hydrate or solvate) [Compound 142, 4-(4-methoxyphenyl)-6-methyl-N-[1-(naphthalen-2-ylmethyl)piperidin-4-yl]phthalazin-1-amine], 134 °C; with `COc1ccc(-c2nnc(NC3CCN(Cc4ccc5ccccc5c4)CC3)c3cc(OC)ccc23)c(OC)c1.Cl.Cl` (hydrate or solvate), 228 °C.

Molecule `COc1cc(OC)cc(-c2nnc(NC3CCN(Cc4ccc5ccccc5c4)CC3)c3cc(OC)ccc23)c1.Cl.Cl` (hydrate or solvate) had a melting point of 240 °C. Consider `COc1ccc2c(-c3cccnc3)nnc(NC3CCN(Cc4ccc5ccccc5c4)CC3)c2c1.Cl.Cl.Cl` (hydrate or solvate), for which the melting point amounted to 225 °C. The result for `COc1ccc(-c2nnc(NC3CCN(Cc4ccc(Cl)cc4)CC3)c3cc(OC)ccc23)cc1.Cl.Cl` (hydrate or solvate) reads 277 °C; that for `COc1ccc2c(-c3ccc(-c4ccccc4)cc3)nnc(NC3CCN(Cc4ccc5ccccc5c4)CC3)c2c1.Cl.Cl` (hydrate or solvate), 292 °C; that for `COc1ccc(-c2nnc(NC3CCN(Cc4ccc(CO)cc4)CC3)c3cc(OC)ccc23)cc1.Cl.Cl` (hydrate or solvate), 294 °C. Take `COc1ccc(-c2nnc(NC3CCN(Cc4ccc(CN)cc4)CC3)c3cc(OC)ccc23)cc1.Cl.Cl.Cl` (hydrate or solvate): the melting point stood at 284 °C. Regarding `COc1ccc(-c2nnc(NC3CCN(Cc4ccc(NC(C)=O)cc4)CC3)c3cc(OC)ccc23)cc1.Cl.Cl` (hydrate or solvate), the melting point was found to be 255 °C. `COc1ccc2c(-c3ccc(C)c(C)c3)nnc(NC3CCN(Cc4ccc5ccccc5c4)CC3)c2c1.Cl.Cl` (hydrate or solvate) showed a melting point of 210 °C. For `COc1ccc(-c2nnc(NC3CCN(Cc4ccc(NC=O)cc4)CC3)c3cc(OC)ccc23)cc1.Cl.Cl` (hydrate or solvate), the melting point was 293 °C. With `COc1ccc(OC)c(-c2nnc(NC3CCN(Cc4ccc5occc5c4)CC3)c3cc(OC)ccc23)c1.Cl.Cl` (hydrate or solvate) the figure was 250 °C. Regarding `COc1ccc(OC)c(-c2nnc(NC3CCN(Cc4ccc5c(c4)OCO5)CC3)c3cc(OC)ccc23)c1.Cl.Cl` (hydrate or solvate), the melting point turned out to be 272 °C. For `COc1ccc(-c2nnc(NC3CCN(Cc4ccc5oc(=O)ccc5c4)CC3)c3cc(OC)ccc23)cc1.Cl.Cl` (hydrate or solvate), the melting point turned out to be 293 °C.

Molecule `COc1ccc(CN2CCC(Nc3nnc(-c4ccc(OC)cc4)c4ccc(OC)cc34)CC2)cc1.Cl.Cl` (hydrate or solvate) had a melting point of 216 °C. On to `CCc1ccc(CN2CCC(Nc3nnc(-c4ccc(OC)cc4)c4ccc(OC)cc34)CC2)cc1.Cl.Cl` (hydrate or solvate), for which the melting point came to 245 °C. With `COc1ccc2c(COc3ccccc3)nnc(NC3CCN(Cc4ccc5ccccc5c4)CC3)c2c1.Cl.Cl` (hydrate or solvate) the figure was 239 °C; with `Cl.Cl.c1ccc(-c2ccc3c(-c4ccccc4)nnc(NC4CCN(Cc5ccc6ccccc6c5)CC4)c3c2)cc1` (hydrate or solvate), 224 °C. Consider `COc1ccc(-c2nnc(NC3CCN(Cc4ccc(C(C)O)cc4)CC3)c3cc(OC)ccc23)cc1.Cl.Cl` (stereo not drawn) (hydrate or solvate), for which the melting point turned out to be 208 °C. Turning to `COc1ccc(-c2nnc(NC3CCN(Cc4ccc(CN5CCCC5)cc4)CC3)c3cc(OC)ccc23)cc1.Cl.Cl.Cl` (hydrate or solvate), the melting point was determined as 222 °C. In the case of `COc1ccc(-c2nnc(NC3CCN(Cc4ccc5ccccc5c4)CC3)c3cc(Cl)ccc23)cc1.Cl.Cl` (hydrate or solvate), the melting point was 230 °C. `COc1ccc2c(-c3ccc(Br)cc3)nnc(NC3CCN(Cc4ccc5ccccc5c4)CC3)c2c1.Cl.Cl` (hydrate or solvate) yielded a melting point of 246 °C. In turn, `COCc1nnc(NC2CCN(Cc3ccc4c(c3)OCO4)CC2)c2cc(OC)ccc12.Cl.Cl` (hydrate or solvate) yielded a melting point of 284 °C.

As for `COc1ccc(-c2nnc(NC3CCN(Cc4ccc(CN(C)C)cc4)CC3)c3cc(OC)ccc23)cc1.Cl.Cl.Cl` (hydrate or solvate), the melting point is 218 °C. In turn, `COc1ccc(-c2nnc(NC3CCN(Cc4ccc5ccccc5c4)CC3)c3cc(OC)cc(OC)c23)cc1.Cl.Cl` (hydrate or solvate) displayed a melting point of 212 °C. With `COc1cc(-c2ccccc2)c2cnnc(NC3CCN(Cc4ccc5ccccc5c4)CC3)c2c1.Cl.Cl` (hydrate or solvate), the melting point came out at 199 °C. For the molecule `COc1ccc(-c2nnc(NC3CCN(Cc4ccc5c(c4)OCO5)CC3)c3cc(OC)ccc23)cc1.Cl.Cl` (hydrate or solvate), the melting point amounted to 235 °C. `COCc1nnc(NC2CCN(Cc3ccc4ccccc4c3)CC2)c2cc(OC)ccc12.Cl` (hydrate or solvate) came in with a melting point of 176 °C. For the molecule `COc1ccc(-c2nnc(NC3CCN(C/C=C/c4ccccc4)CC3)c3cc(OC)ccc23)cc1.Cl.Cl` (hydrate or solvate), the melting point is 210 °C. With `COc1ccc(-c2nnc(N[C@@H]3CCN(Cc4ccc5ccccc5c4)C3)c3cc(OC)ccc23)cc1.Cl.Cl` (hydrate or solvate) the figure was 254 °C; with `COc1ccc(OC)c(-c2nnc(NC3CCN(Cc4ccc5ccccc5c4)CC3)c3cc(OC)ccc23)c1.Cl.Cl` (hydrate or solvate), 240 °C. The molecule `COc1ccc(-c2nnc(NC3CCN(Cc4ccccc4)CC3)c3cc(OC)cc(OC)c23)cc1` [Compound 11, N-(1-benzylpiperidin-4-yl)-5,7-dimethoxy-4-(4-methoxyphenyl)phthalazin-1-amine] gave a melting point of 168 °C. In the case of `COc1cc(OC)c2c(Cc3ccccc3)nnc(NC3CCN(Cc4ccc5ccccc5c4)CC3)c2c1` [Compound 22, 4-Benzyl-5,7-dimethoxy-N-[1-(naphthalen-2-ylmethyl)piperidin-4-yl]phthalazin-1-amine], the melting point came out at 163 °C.

In turn, `COc1ccc(-c2nnc(NC3CCN(Cc4ccc(C)c(F)c4)CC3)c3cc(OC)ccc23)cc1` [Compound 74, N-[1-(3-fluoro-4-methylbenzyl)piperidin-4-yl]-7-methoxy-4-(4-methoxyphenyl)phthalazin-1-amine] showed a melting point of 210 °C.

Regarding `COc1ccc2c(C)nnc(NC3CCN(Cc4ccc5ccccc5c4)CC3)c2c1` [Compound 95, 7-Methoxy-4-methyl-N-[1-(naphthalen-2-ylmethyl)piperidin-4-yl]phthalazin-1-amine], the melting point was determined as 188 °C.

As for `Fc1ccc(-c2nnc(NC3CCN(Cc4ccc5ccccc5c4)CC3)c3cc(F)ccc23)cc1` [Compound 106, 7-Fluoro-4-(4-fluorophenyl)-N-[1-(naphthalen-2-ylmethyl)piperidin-4-yl]phthalazin-1-amine], the melting point worked out at 207 °C.

Molecule `COc1ccc(-c2nnc(NC3CCN(Cc4ccc5[nH]cnc5c4)CC3)c3cc(OC)ccc23)cc1` [Compound 138, N-[1-(1H-benzimidazol-5-ylmethyl)piperidin-4-yl]-7-methoxy-4-(4-methoxyphenyl)phthalazin-1-amine] gave a melting point of 267 °C.
